Experimental data reported in US9546176B2, “Small molecule bicyclic and tricyclic CFTR correctors” (DISCOVERYBIOMED, INC., priority 2012, dated 2017).
Where two headings read alike, the source gives them in different places.

Target: T1, delF508-CFTR (Homo sapiens, UniProt P13569, DEL508-508)
T1 construct: endogenous in cells; host or cells: CFBE41o- human CF bronchial epithelial cells (delF508 homozygous)
Test: SPQ halide-sensitive fluorescence dye assay for rescue of halide efflux (8-point concentration-response)
Assay type: cell-based
Settings: for potency and efficacy compared with VX-809 in SPQ assay: versus VX-809
Experimental: The method of profiling can include detecting the rescue of halide efflux from a cell. The step of detecting a rescue of halide efflux from the cell can be monitored using the halide quenched dye 6-methoxy-N-(3-sulfopropyl)-quinolinium (SPQ, Molecular Probes Inc., Eugene, Oreg.). In this method, cells are treated with a compound as described herein for a period of time (e.g., 48 hours). The rescue or correction of halide efflux is then detected using the SPQ assay with the halide dye. […] Optionally, the halide efflux is chloride efflux. The method of screening can further comprise performing the method with multiple concentrations of the compound.
The compounds were initially subjected to the SPQ halide-sensitive fluorescence dye profiling assay for rescue or correction of membrane chloride ion permeability or transport with an 8-point concentration-response curve. The EC50 values for the compounds described herein were determined using SPQ (Table 1). The ΔSPQ value was calculated by determining the difference between the maximum and minimum SPQ values for the compounds.
To perform the SPQ high throughput screening assay, CFBE41o-cells were seeded into 96-well microtiter plates and were loaded with the fluorescent halide-sensitive dye, SPQ, in serum-containing culture medium. Certain wells were loaded with known positive control corrector molecules, including the industry standard Vertex 809 (VX-809; Vertex Pharmaceuticals, Cambridge, Mass.) at 3 μM, which is the maximally effective profiling dose for VX-809. The test compounds were loaded into wells and were tested in triplicate wells at a 10 μM dose and incubated over 48 hours at room temperature. During the 48 hour period, SPQ was absorbed. Plates were washed in a sodium chloride (NaCl) based Ringer and read once over two minutes to set the baseline SPQ fluorescence activity. Then, NaCl was replaced by sodium nitrate (NaNO3) based Ringer. The plates were read twice over four minutes. The primary high throughput screen (HTS) data were analyzed to detect any function of rescued delF508-CFTR under basal conditions. The plate was read up to two times to complete the SPQ HTS assay.

[1] = CFBE41o- cells, 48 h, read-out: SPQ EC50

T1 sequence (P13569 with tags, fused parts or gaps DEL508-508): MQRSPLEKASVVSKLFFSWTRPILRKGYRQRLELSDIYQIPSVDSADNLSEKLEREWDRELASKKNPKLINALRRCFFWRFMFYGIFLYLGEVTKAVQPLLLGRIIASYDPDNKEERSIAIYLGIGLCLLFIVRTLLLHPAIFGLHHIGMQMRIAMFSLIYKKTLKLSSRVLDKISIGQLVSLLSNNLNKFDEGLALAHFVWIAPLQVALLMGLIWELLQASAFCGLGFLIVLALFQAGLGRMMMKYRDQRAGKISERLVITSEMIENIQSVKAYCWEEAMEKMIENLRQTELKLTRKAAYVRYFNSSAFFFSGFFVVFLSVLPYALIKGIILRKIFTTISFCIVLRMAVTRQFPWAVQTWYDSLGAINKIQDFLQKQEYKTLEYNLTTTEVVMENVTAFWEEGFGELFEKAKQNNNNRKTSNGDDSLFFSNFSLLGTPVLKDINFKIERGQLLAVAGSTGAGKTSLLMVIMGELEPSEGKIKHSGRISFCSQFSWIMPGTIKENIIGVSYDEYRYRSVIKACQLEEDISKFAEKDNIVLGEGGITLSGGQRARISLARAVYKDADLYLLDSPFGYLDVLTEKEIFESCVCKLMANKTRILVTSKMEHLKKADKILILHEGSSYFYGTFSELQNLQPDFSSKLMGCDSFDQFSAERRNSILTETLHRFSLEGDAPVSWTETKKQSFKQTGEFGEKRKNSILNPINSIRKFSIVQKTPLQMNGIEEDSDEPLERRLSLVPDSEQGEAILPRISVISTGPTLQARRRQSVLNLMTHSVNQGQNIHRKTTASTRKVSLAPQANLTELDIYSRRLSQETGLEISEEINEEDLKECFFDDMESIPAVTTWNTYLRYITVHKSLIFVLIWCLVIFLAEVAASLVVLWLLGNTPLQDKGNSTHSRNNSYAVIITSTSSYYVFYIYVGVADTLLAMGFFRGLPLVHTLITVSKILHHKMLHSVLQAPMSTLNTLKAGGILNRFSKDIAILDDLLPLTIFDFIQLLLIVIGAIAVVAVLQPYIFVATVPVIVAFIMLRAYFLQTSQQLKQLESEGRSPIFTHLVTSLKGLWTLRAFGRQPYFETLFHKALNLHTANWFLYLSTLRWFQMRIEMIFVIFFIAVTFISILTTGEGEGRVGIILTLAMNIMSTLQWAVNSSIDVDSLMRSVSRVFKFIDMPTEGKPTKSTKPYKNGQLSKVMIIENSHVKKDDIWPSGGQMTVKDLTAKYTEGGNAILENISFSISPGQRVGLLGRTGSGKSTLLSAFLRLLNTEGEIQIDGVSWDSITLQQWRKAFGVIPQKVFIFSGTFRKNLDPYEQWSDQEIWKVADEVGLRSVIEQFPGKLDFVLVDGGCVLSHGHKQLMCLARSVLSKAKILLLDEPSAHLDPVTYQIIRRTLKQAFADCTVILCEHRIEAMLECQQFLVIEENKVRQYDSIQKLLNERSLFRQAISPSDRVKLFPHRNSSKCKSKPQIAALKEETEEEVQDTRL

Compound	ΔSPQ (difference between maximum and minimum SPQ values) (CFBE41o- cells, 48 h) [RFU]	EC50 [1] [µM]	SPQ EC50 (CFBE41o- cells, 48 h)	also measured
CSc1nc(SCC(=O)O)c2sc3c(c2n1)COC(C)(C)C3 [Compound 2]	4862	15.8		
Cc1cn2c3c(=O)n(C)c(=O)n(C)c3nc2n1-c1ccccc1O [Compound A-1]			No effect	
Cc1cn2c3c(=O)n(C)c(=O)n(C)c3nc2n1-c1cccc(O)c1 [Compound A-2]	4000	8.9		potency and efficacy compared with VX-809 in SPQ assay: superior potency and efficacy to VX-809
Cc1cn2c3c(=O)n(C)c(=O)n(C)c3nc2n1-c1ccc(O)cc1 [Compound A-3]	2100	6.5		potency and efficacy compared with VX-809 in SPQ assay: superior potency and efficacy to VX-809
Cc1cn2c3c(=O)n(C)c(=O)n(C)c3nc2n1-c1ccccn1 [Compound A-4]			No effect	
Cc1cn2c3c(=O)n(C)c(=O)n(C)c3nc2n1-c1cccnc1 [Compound A-5]			No effect	
Cc1cn2c3c(=O)n(C)c(=O)n(C)c3nc2n1CCO [Compound A-7]			No effect	
Cc1cn2c3c(=O)n(C)c(=O)n(C)c3nc2n1CCN(C)C [Compound A-8]			No effect	
Cc1cn2c3c(=O)n(C)c(=O)n(C)c3nc2n1CC[N+](C)(C)C [Compound A-9]			No effect	
Cc1cn2c3c(=O)n(C)c(=O)n(C)c3nc2n1CCN1CCOCC1 [Compound A-10]			No effect	
Cn1c(=O)c2nc(N3CCOCC3)[nH]c2n(C)c1=O [Compound B-1]		9.7		
Cn1c(=O)c2nc(N3CCNCC3)[nH]c2n(C)c1=O [Compound B-2]			No effect	
Cn1c(=O)c2nc(N3CCN(c4ccccn4)CC3)[nH]c2n(C)c1=O [Compound B-3]		10		
Cn1c(=O)c2[nH]c(N3CCN(c4ccncc4)CC3)nc2n(C)c1=O [Compound B-4]			No effect	
Cn1c(=O)c2nc(N3CCN(c4ncccn4)CC3)[nH]c2n(C)c1=O [Compound B-5]			No effect	
Cn1c(=O)c2[nH]c(N3CCN(c4ccc(O)cc4)CC3)nc2n(C)c1=O [Compound B-6]			No effect	
COc1ccc(CN2CCN(c3nc4c(=O)n(C)c(=O)n(C)c4[nH]3)CC2)cc1 [Compound B-7.1]	800	0.9		potency and efficacy compared with VX-809 in SPQ assay: superior potency and efficacy to VX-809
COc1ccc(CN2CCN(c3nc4c(=O)n(C)c(=O)n(C)c4[nH]3)CC2)cc1OC [Compound B-7.2]		> 30		
CCOc1ccc(CN2CCN(c3nc4c(=O)n(C)c(=O)n(C)c4[nH]3)CC2)cc1 [Compound B-7.3]		3.8		
CSc1ccc(CN2CCN(c3nc4c(=O)n(C)c(=O)n(C)c4[nH]3)CC2)cc1 [Compound B-7.4]			No effect to inhibitory	
Cc1ccc(CN2CCN(c3nc4c(=O)n(C)c(=O)n(C)c4[nH]3)CC2)cc1 [Compound B-7.5]			No effect	
Cn1c(=O)c2nc(N3CCN(Cc4ccc(OC(F)(F)F)cc4)CC3)[nH]c2n(C)c1=O [Compound B-7.6]			No effect	
Cn1c(=O)c2nc(N3CCN(Cc4ccc(C(F)(F)F)cc4)CC3)[nH]c2n(C)c1=O [Compound B-7.7]			No effect	
Cn1c(=O)c2nc(N3CCN(Cc4ccc5c(c4)OCCO5)CC3)[nH]c2n(C)c1=O [Compound B-7.8]			No effect	
COc1ccccc1CN1CCN(c2nc3c(=O)n(C)c(=O)n(C)c3[nH]2)CC1 [Compound B-7.9]	2800	3.2		potency and efficacy compared with VX-809 in SPQ assay: superior potency and efficacy to VX-809
COc1cccc(CN2CCN(c3nc4c(=O)n(C)c(=O)n(C)c4[nH]3)CC2)c1 [Compound B-7.10]	3750	7.1		potency and efficacy compared with VX-809 in SPQ assay: superior potency and efficacy to VX-809

Compound	ΔSPQ (difference between maximum and minimum SPQ values) (CFBE41o- cells, 48 h) [RFU]	EC50 [1] [µM]	SPQ EC50 (CFBE41o- cells, 48 h)	also measured
COc1ccc(C(=O)N2CCN(c3nc4c(=O)n(C)c(=O)n(C)c4[nH]3)CC2)cc1 [Compound B-7.12]		6.2		
COc1ccc(N2CCN(c3nc4c([nH]3)c(=O)n(C)c(=O)n4C)CC2)cc1 [Compound B-7.17]		3.5		
COCCCCN1CCN(c2nc3c(=O)n(C)c(=O)n(C)c3[nH]2)CC1 [Compound B-7.20]			No effect	
Cn1c(=O)c2nc(N3CCN(Cc4ccc(O)cc4)CC3)[nH]c2n(C)c1=O [Compound B-7]			No effect	
Cn1c(=O)c2nc(NCCO)[nH]c2n(C)c1=O [Compound B-8]			No effect	
CN(C)CCNc1nc2c(=O)n(C)c(=O)n(C)c2[nH]1 [Compound B-9]			No effect	
Cn1c(=O)c2[nH]c(NCCN)nc2n(C)c1=O [Compound B-11]			No effect	
Cn1c(=O)c2[nH]c(NCCSc3ncccn3)nc2n(C)c1=O [Compound B-12]			No effect	
Cn1c(=O)c2[nH]c(NCCNc3ccccn3)nc2n(C)c1=O [Compound B-13]			No effect	
Cn1c(=O)c2nc(N3CCN(CCO)CC3)[nH]c2n(C)c1=O [Compound B-14]			No effect	
Cn1c(=O)c2[nH]c(N3CCC(O)CC3)nc2n(C)c1=O [Compound B-15]			No effect	
C=CCn1c(=O)c2c(nc3n(CCC)c(C)cn23)n(C)c1=O [Compound I-1]	3801	17.8		
CCCCn1c(C)cn2c3c(=O)n(CCC)c(=O)n(C)c3nc12 [Compound I-2]	3102			EC50: > 30 µM
C/C=C/Cn1c(=O)c2c(nc3n(C(C)CC)c(C)cn23)n(C)c1=O (stereo not shown) [Compound I-3]	5305	> 30		
C=CCn1c(=O)c2c(nc3n(C(C)CC)c(C)c(C)n23)n(C)c1=O (stereo not shown) [Compound I-4]	11108	5.4		
Cc1cccc(-n2c(C)c(C)n3c4c(=O)n(C)c(=O)n(C)c4nc23)c1 [Compound I-5]	13531	> 30		
CCn1c(=O)c2c(nc3n(-c4cccc(C)c4)c(C)c(C)n23)n(C)c1=O [Compound I-6]	6023	8.9		
CCn1c(=O)c2c(nc3n(-c4ccc(F)cc4)c(C)c(C)n23)n(C)c1=O [Compound I-7]	5779	10.1		
CCn1c(=O)c2c(nc3n(-c4ccc(C)cc4)c(C)c(C)n23)n(C)c1=O [Compound I-8]	6975	3.6		
CCn1c(=O)c2c(nc3n(-c4ccc(C)cc4)c(C)cn23)n(C)c1=O [Compound I-9]	3793	3.7		
CCn1c(=O)c2c(nc3n(-c4ccccc4)c(C)c(C)n23)n(C)c1=O [Compound I-10]	4005	4		
Cc1ccc(C)c(Cn2c(=O)c3c(nc4[nH]c(C)c(C)n43)n(C)c2=O)c1 [Compound I-11]	3705	> 30		
CCCn1c(C)cn2c3c(=O)n(Cc4ccccc4)c(=O)n(C)c3nc12 [Compound I-12]	6259	> 30		
Cc1cc(C)cc(-n2c(C)cn3c4c(=O)n(C)c(=O)n(C)c4nc23)c1 [Compound I-13]	6131	9		
CCCn1c(=O)c2c(nc3n(-c4ccccc4C)c(C)cn23)n(C)c1=O [Compound I-14]	8875	18.9		
